Where “and” joins values, the source holds several entries; their conditions need not be identical. Identical values can stand only once. Toxic doses and inconclusive results are not listed. Rule for the calls: active = survival T/C of 150% or more; inactive = T/C below 125% in these data.
Tested on: BDF1 mice, B16 melanoma ip, median survival T/C
Test: NCI In Vivo Anticancer Drug Screen. Data for tumor model B16 Melanoma (intraperitoneal) in B6D2F1 (BDF1) mice
Details: endpoint: median survival time, higher = longer survival
In short: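 In this screen, activity was judged from survival or tumor size in treated versus vehicle-treated tumor-bearing mice, reported as T/C.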

[1] = dose: 6.25 mg/kg/injection, schedule: Q01DX009 (ip), vehicle: saline
[2] = dose: 12.5 mg/kg/injection, schedule: Q01DX009 (ip), vehicle: saline
[3] = dose: 25.0 mg/kg/injection, schedule: Q01DX009 (ip), vehicle: saline
[4] = dose: 50.0 mg/kg/injection, schedule: Q01DX009 (ip), vehicle: saline
[5] = dose: 100.0 mg/kg/injection, schedule: Q01DX009 (ip), vehicle: saline
[6] = dose: 100.0 mg/kg/injection, schedule: Q01DX009 (ip), vehicle: Klucel (hydroxypropylcellulose) (HPC)
[7] = dose: 200.0 mg/kg/injection, schedule: Q01DX009 (ip), vehicle: Klucel (hydroxypropylcellulose) (HPC)
[8] = dose: 400.0 mg/kg/injection, schedule: Q01DX009 (ip), vehicle: Klucel (hydroxypropylcellulose) (HPC)
[9] = dose: 25.0 mg/kg/injection, schedule: Q01DX009 (ip), vehicle: saline with Tween-80
[10] = dose: 50.0 mg/kg/injection, schedule: Q01DX009 (ip), vehicle: saline with Tween-80
[11] = dose: 100.0 mg/kg/injection, schedule: Q01DX009 (ip), vehicle: saline with Tween-80
[12] = dose: 200.0 mg/kg/injection, schedule: Q01DX009 (ip), vehicle: saline with Tween-80
[13] = dose: 400.0 mg/kg/injection, schedule: Q01DX009 (ip), vehicle: saline with Tween-80

Measured: T/C

Cc1ccc(C#N)s1
inactive: dose: 3.12 mg/kg/injection, schedule: Q01DX009 (ip), vehicle: other 104 % of control | dose: 6.25 mg/kg/injection, schedule: Q01DX009 (ip), vehicle: other 109 % of control | dose: 12.5 mg/kg/injection, schedule: Q01DX009 (ip), vehicle: other 101 % of control | dose: 25.0 mg/kg/injection, schedule: Q01DX009 (ip), vehicle: other 108 % of control

O=C1C=CC(n2cc(F)c(=O)[nH]c2=O)O1 (configuration not stated)
inactive: [1] 97 % of control | [2] 95 % of control | [3] 96 % of control | [4] 107 % of control | [5] 97 % of control

CCN(CC)CCSC(=S)N1c2ccccc2Sc2ccccc21
inactive: dose: 1.09 mg/kg/injection, schedule: Q01DX009 (ip), vehicle: Klucel (hydroxypropylcellulose) (HPC) 109 % of control | dose: 2.18 mg/kg/injection, schedule: Q01DX009 (ip), vehicle: Klucel (hydroxypropylcellulose) (HPC) 105 % of control | dose: 4.37 mg/kg/injection, schedule: Q01DX009 (ip), vehicle: Klucel (hydroxypropylcellulose) (HPC) 107 % of control | dose: 8.75 mg/kg/injection, schedule: Q01DX009 (ip), vehicle: Klucel (hydroxypropylcellulose) (HPC) 111 % of control | dose: 17.5 mg/kg/injection, schedule: Q01DX009 (ip), vehicle: Klucel (hydroxypropylcellulose) (HPC) 100 % of control

Cc1cc(=O)n2c3c(cc(C#N)cc13)OC2
inactive: dose: 100.0 mg/kg/injection, schedule: Q04DX003 (ip), vehicle: Klucel (hydroxypropylcellulose) (HPC) 92 % of control | dose: 200.0 mg/kg/injection, schedule: Q04DX003 (ip), vehicle: Klucel (hydroxypropylcellulose) (HPC) 95 % of control | dose: 400.0 mg/kg/injection, schedule: Q04DX003 (ip), vehicle: Klucel (hydroxypropylcellulose) (HPC) 92 % of control

C=CCN(CC=C)CCN(CC)CC
inactive: [1] 93 % of control | [2] 94 % of control | [3] 94 % of control | [4] 91 % of control

COc1ccc(CSCC(NC(=O)OC(C)(C)C)C(=O)O)cc1 (configuration not stated)
inactive: [6] 110 % of control | [7] 97 % of control | [8] 95 % of control

Brc1ccc(C[N+]23CN4CN(CN(C4)C2)C3)cc1
inactive: [6] 121 % of control | [7] 115 % of control

CC(=O)Oc1[nH]c(=O)c2cccc3c2c1CCC3
inactive: [9] 106 % of control | [10] 107 % of control | [11] 115 % of control | [12] 114 % of control | [13] 105 % of control

CCCCCCCCCCCCCCCCCCNC(=O)Nc1ccccc1CC
inactive: [10] 86 % of control

CC(=O)Oc1ccc(/C=N/NC(N)=S)nc1
inactive: dose: 9.4 mg/kg/injection, schedule: Q01DX009 (ip), vehicle: saline with Tween-80 96 % of control | dose: 18.8 mg/kg/injection, schedule: Q01DX009 (ip), vehicle: saline with Tween-80 106 % of control | dose: 37.5 mg/kg/injection, schedule: Q01DX009 (ip), vehicle: saline with Tween-80 108 % of control | dose: 75.0 mg/kg/injection, schedule: Q01DX009 (ip), vehicle: saline with Tween-80 112 % of control | dose: 150.0 mg/kg/injection, schedule: Q01DX009 (ip), vehicle: saline with Tween-80 108 % of control

O=C1CCC2(CCC(=O)c3ccccc32)C(=O)N1 (configuration not stated)
inactive: dose: 50.0 mg/kg/injection, schedule: Q01DX009 (ip), vehicle: Klucel (hydroxypropylcellulose) (HPC) 119 % of control | [6] 114 % of control | [7] 116 % of control

CCN(C(=O)Nc1ccccc1Cl)c1ccccc1
inactive: dose: 100.0 mg/kg/injection, schedule: Q04DX003 (ip), vehicle: saline with Tween-80 94 % of control | dose: 200.0 mg/kg/injection, schedule: Q04DX003 (ip), vehicle: saline with Tween-80 100 % of control | dose: 400.0 mg/kg/injection, schedule: Q04DX003 (ip), vehicle: saline with Tween-80 91 % of control

Cc1c(N)nc(C(CC(N)=O)NCC(N)C(N)=O)nc1C(=O)NC(C(=O)NC(C)C(O)C(C)C(=O)NC(C(=O)NCCc1nc(-c2nc(C(=O)NCCCNC(C)c3ccccc3)cs2)cs1)C(C)O)C(OC1OC(CO)C(O)C(O)C1OC1OC(CO)C(O)C(OC(N)=O)C1O)c1cnc[nH]1 (configuration not stated)
inactive: dose: 0.25 mg/kg/injection, schedule: Q01DX009 (ip), vehicle: saline 105 % of control | dose: 0.5 mg/kg/injection, schedule: Q01DX009 (ip), vehicle: saline 102 % of control | dose: 1.0 mg/kg/injection, schedule: Q01DX009 (ip), vehicle: saline 106 % of control | dose: 2.0 mg/kg/injection, schedule: Q01DX009 (ip), vehicle: saline 110 % of control | dose: 4.0 mg/kg/injection, schedule: Q01DX009 (ip), vehicle: saline 108 % of control | dose: 8.0 mg/kg/injection, schedule: Q01DX009 (ip), vehicle: saline 111 % of control

CCN(CC)CCOC(=O)Cc1ccccc1
inactive: [6] 106 % of control | [7] 103 % of control | [8] 103 % of control

COc1cccc2c1cc([N+](=O)[O-])c1c(C(=O)O)cc3c(c12)OCO3
inactive: dose: 2.5 mg/kg/injection, schedule: Q01DX009 (ip), vehicle: Klucel (hydroxypropylcellulose) (HPC) 106 % of control | dose: 5.0 mg/kg/injection, schedule: Q01DX009 (ip), vehicle: Klucel (hydroxypropylcellulose) (HPC) 111 % of control | dose: 10.0 mg/kg/injection, schedule: Q01DX009 (ip), vehicle: Klucel (hydroxypropylcellulose) (HPC) 94 % of control

CCC1CN2CCC3(C(=O)Nc4ccccc43)C2CC1/C(=C/OC)C(=O)OC (configuration not stated)
inactive: [10] 95 % of control

C#CC(C)OCC1CNC(=S)O1 (configuration not stated)
inactive: [9] 100 % of control | [10] 89 % of control | [11] 97 % of control | [13] 91 % of control

Cc1ccc(NS(=O)(=O)c2cccc([N+](=O)[O-])c2)cc1Cl
inactive: [11] 107 % of control | [12] 105 % of control | [13] 96 % of control

OCCNCCN1CCN(CCCN2c3ccccc3Sc3ccc(C(F)(F)F)cc32)CC1
inactive: dose: 3.12 mg/kg/injection, schedule: Q01DX009 (ip), vehicle: saline 108 % of control | [1] 102 % of control | [2] 100 % of control | [3] 92 % of control

O=[N+]([O-])c1ccc(N2CCC(CCCC3CCN(c4ccc([N+](=O)[O-])cc4[N+](=O)[O-])CC3)CC2)c([N+](=O)[O-])c1
inactive: dose: 25.0 mg/kg/injection, schedule: Q01DX009 (ip), vehicle: Klucel (hydroxypropylcellulose) (HPC) 106 % of control | [6] 112 % of control

Nc1ccc(N=Nc2ccc(S(=O)(=O)O)cc2)cc1
inactive: [9] 93 % of control | [10] 97 % of control | [11] 90 % of control and 104 % of control

N=C(N)Sc1ccccn1
inactive: [2] 95 % of control | dose: 12.5 mg/kg/injection, schedule: Q01DX009 (ip), vehicle: suspension in saline 98 % of control | [3] 97 % of control | dose: 25.0 mg/kg/injection, schedule: Q01DX009 (ip), vehicle: suspension in saline 100 % of control | [4] 100 % of control | dose: 50.0 mg/kg/injection, schedule: Q01DX009 (ip), vehicle: suspension in saline 92 % of control | [5] 98 % of control | dose: 100.0 mg/kg/injection, schedule: Q01DX009 (ip), vehicle: suspension in saline 92 % of control

CN(C)CCCCNc1ccc(NCCCCN(C)C)c2c1C(=O)c1c(O)ccc(O)c1C2=O
inactive: [1] 95 % of control | [2] 93 % of control | [3] 90 % of control and 110 % of control

COC(=O)C1=C(O)CN(C)C1=O
inactive: dose: 37.5 mg/kg/injection, schedule: Q04DX003 (ip), vehicle: saline 102 % of control | dose: 75.0 mg/kg/injection, schedule: Q04DX003 (ip), vehicle: saline 100 % of control | dose: 150.0 mg/kg/injection, schedule: Q04DX003 (ip), vehicle: saline 108 % of control

CC(=O)Nc1ccc([N+](=O)[O-])cc1
inactive: dose: 12.5 mg/kg/injection, schedule: Q01DX009 (ip), vehicle: alcohol 95 % of control | dose: 25.0 mg/kg/injection, schedule: Q01DX009 (ip), vehicle: alcohol 102 % of control | dose: 50.0 mg/kg/injection, schedule: Q01DX009 (ip), vehicle: alcohol 93 % of control | [11] 88 % of control

Cc1ccc(C)n1-c1ccccc1C(=O)O
inactive: [6] 106 % of control | [7] 96 % of control | [8] 90 % of control

COc1cccc2c1C(=O)c1c(O)c3c(c(O)c1C2=O)C[C@@](O)(C(=O)CN1CCOCC1)C[C@@H]3OC1CC(N)C(O)C(C)O1 (some centres not stated)
active: dose: 3.13 mg/kg/injection, schedule: Q01DX009 (ip), vehicle: water 159 % of control | dose: 6.25 mg/kg/injection, schedule: Q01DX009 (ip), vehicle: water 153 % of control | dose: 12.5 mg/kg/injection, schedule: Q01DX009 (ip), vehicle: water 157 % of control | dose: 25.0 mg/kg/injection, schedule: Q01DX009 (ip), vehicle: water 157 % of control

Source: PubChem BioAssay AID192 (DTP/NCI, 2004)
